{"source": "patent US20220152044A1", "about": "“TREATMENT OF INFLAMMATORY DISEASES OF THE CENTRAL NERVOUS SYSTEM” (PALMAYA PTY LTD, priority 2019, published 2022)", "key": {"[1]": {"test_system": "migraine patients", "test": "Two migraine patients, follow-up during and after flumazenil delivery", "format": "in vivo, human", "method": "Two migraine patients initially described migraine symptoms, are both symptom free for more than a year. No repeat treatments occurred in the second of the migraine patients, and as such, believe that the treatment might be curative in some patients.\nIn these two patients treated for migraines, the first patient the history of migraines affecting their required an infusion initially, and then flumazenil implants maintaining at least 1 ng per ml of flumazenil to achieve relief of symptoms. In a second patient we noted that the symptom relief has lasted for more than 12 months when treatment with a flumazenil implant lasting an estimated six months occurred."}, "[2]": {"test_system": "PTSD", "test": "PTSD patients treated with flumazenil and/or naltrexone", "format": "in vivo, human", "conditions": "infusions and implants", "excerpt": "Post Trauma Stress Disorder (PTSD), causes dysregulation of anxiety control that may damage the GABAA system and present as hypervigilance, sleep disturbance, anxiety, gastrointestinal (GIT) or bladder symptoms. We have been using flumazenil for more than 8 years to treat patients presenting complex. The infusions and implants give relief to the anxiety, sleep disturbance and the GIT symptoms as well as urinary symptoms in many well established PTSD patients.\nSleep remained normal following this. The profound recovery of sleep in patients with PTSD using flumazenil and naltrexone by continuous delivery has not previously been described."}, "[3]": {"test_system": "methamphetamine use", "test": "Survey of 109 patients, methamphetamine use after flumazenil infusion", "format": "in vivo, human", "excerpt": "In a survey of 109 patients treated with flumazenil 4.9% were using methamphetamines daily and this fell to 0.9% following treatment with the flumazenil infusion. Abstinence from methamphetamine use increased from 67% before flumazenil treatment to 87% following treatment. This means that 33% of patients using methamphetamines fell to 13% following treatment with flumazenil."}, "[4]": {"test": "Water bath release rate testing of flumazenil implant", "format": "physicochemical", "conditions": "based on water bath release rate testing", "method": "(§1) The patient was then treated with a subcutaneous implant delivering an estimated 60-80 micrograms per hour of flumazenil (based on water bath release rate testing). The implant was expected to last 8-10 weeks. This prevented the migraines for about 9-10weeks. In the week before the implant was inserted, the patient's blood flumazenil level was noted to be 0.5 ng/ml. The usual expected level for 160 microgram an hour infusions was in the order of 2-3 ng per ml and 1-1.5 ng for 80 microgram per hour infusions."}, "[5]": {"test_system": "HPA axis", "test": "HPA axis in stressed animals", "format": "in vivo", "excerpt": "For this reason the combination of sustained release naltrexone and sustained release flumazenil using injections, implants or infusions would be expected to limit neuro-inflammatory diseases and their symptoms."}, "[6]": {"test_system": "opioid use", "test": "Abstinence from opioids in 108 patients treated with flumazenil", "format": "in vivo, human", "conditions": "91.2% before flumazenil", "excerpt": "In the 108 patients treated with flumazenil abstinence from opioids increased from 91.2% before flumazenil to 100% following the flumazenil treatment."}, "[7]": {"test_system": "amphetamine use", "test": "Amphetamine / methamphetamine craving and withdrawal", "format": "in vivo, human", "conditions": "methamphetamine patients, flumazenil infusions at 160 μg/hour", "method": "In those patients that return 2-3 weeks with extreme anxiety and a desire to return to amphetamine use, the commencement of flumazenil infusions followed by a flumazenil implant that sustains a plasma concentration of flumazenil at 0.5-2 ng/ml or more decreases the cravings, including a decrease in the desire for amphetamines and allows reduction f irritability and aggression."}, "[8]": {"test_system": "alcohol patients", "test": "Survey of 84 alcohol patients after flumazenil infusions or implants", "format": "in vivo, human", "excerpt": "In a survey of 84 alcohol patients the percent of patients drinking daily fell from 14.5% to 5.5% following flumazenil infusions or implants."}, "[9]": {"test_system": "craving for nicotine", "test": "Nicotine craving and use in patients", "format": "in vivo, human", "conditions": "flumazenil by infusion or nasally/sublingually 50 to 200 micrograms per dose"}, "[10]": {"test_system": "anxiety", "test": "Anxiety states monitored in twenty one patients after flumazenil", "format": "in vivo, human", "excerpt": "Twenty one patients were monitored after treatment with flumazenil for the following states: (i) calmness, (ii) tenseness, (iii) relaxation, (iv) contentedness, (v) worry; and (vi) upset."}, "[11]": {"test": "Blood / plasma flumazenil level in patients", "format": "in vivo, human", "method": "In a severe patient population, ondansetron may be given every 6-8 hours to assist in reducing the nausea and associated anxiety symptoms.\nas §1\nThis finding that the migraines were stopped for a nine week period of time was amazing to the patient as they had suffered migraines for typically three weeks out of four for all of the years […]. At the end of week 8 on the first implant their blood flumazenil level was recorded as 0.5 ng per ml, which is considered a low level. Within a week another migraine started and the patient presented to the clinic for treatment.\nThis next implant was also delivering an estimated 60-80 micrograms of flumazenil per hour. Evidence of ovulation was confirmed by routine elevation of progesterone during the luteal phase of one of the two cycles during the time of this second implant. Again no migraines occurred during an 8-9 week time of the second implant. Blood levels of flumazenil at 1.2 and 1.3 ng/ml were recorded during the time of the second implant. After 9-10 weeks the patient, presented to a teaching hospital on the weekend with another migraine. They were treated with all the modern treatments for migraines without resolution of the migraine."}, "[12]": {"test_system": "benzodiazepine detoxification", "test": "Benzodiazepine detoxification with subcutaneous flumazenil infusion", "format": "in vivo, human", "method": "Benzodiazepines bring relief to stress and are involved in the release of dopamine. As with all other significant addictions, self-control is extremely damaged in patients with a severe benzodiazepine addiction. Our observations of the treatment of poly-drug dependency which includes benzodiazepine usually responds well to the use of flumazenil at 40-160 μg/hour together with 40-160 μg/hour or greater. […] The continual delivery of flumazenil at this rate allows most patients to reduce their benzodiazepine dosing over a few days to a week or two. The control of symptoms as these patients cease their benzodiazepine is controlled so that the majority of patients can cease benzodiazepine use successfully.\nWe have used our solution of flumazenil at 16 mg per 30 ml with a pH of 4±1 as a subcutaneous infusion at 40 to 160 μg per hour as our standard treatment to reduce the symptoms associated with benzodiazepine detoxification.\nAnticonvulsants, such as sodium valproate at 500 to 1000 mg per day were used for the first 10 days of flumazenil treatment to reduce the risk of epileptic seizures. […] The infusion may require several weeks of treatment and can be followed up with a flumazenil infusion delivering 40 to 160 μg per hour or more, as required to complete detoxification from the opioid."}}, "note": "Where “and” joins values, the source holds several entries; their conditions need not be identical. Identical values can stand only once. Entries after “also recorded” stand apart in the source; their conditions may differ.", "data": [{"smiles": "CCOC(=O)c1ncn2c1CN(C)C(=O)c1cc(F)ccc1-2", "note": "[flumazenil]", "values": [{"measurement": "flumazenil level maintained by implants to achieve relief of symptoms", "setting": "[1]; first migraine patient, infusion initially then implants", "value": "at least 1 ng per ml"}, {"measurement": "duration of symptom relief", "setting": "[1]; second patient, flumazenil implant lasting an estimated six months, no repeat treatment", "value": "more than 12 months"}, {"measurement": "symptom free period", "setting": "[1]; two migraine patients", "value": "more than a year"}, {"measurement": "PTSD symptoms (anxiety, sleep disturbance, GIT and urinary symptoms)", "setting": "[2]", "value": "give relief; also recorded: significant improvement"}, {"measurement": "patients using methamphetamines following treatment", "setting": "[3]; 33% before treatment", "value": 13, "unit": "%"}, {"measurement": "patients using methamphetamines daily following treatment", "setting": "[3]; 109 patients, flumazenil infusion, 4.9% before", "value": 0.9, "unit": "%"}, {"measurement": "abstinence from methamphetamine use following treatment", "setting": "[3]; 109 patients, 67% before flumazenil treatment", "value": 87, "unit": "%"}, {"measurement": "estimated delivery rate of flumazenil from subcutaneous implant", "setting": "[4]", "value": "60-80 micrograms per hour"}, {"measurement": "return of the HPA axis to normal", "setting": "[5]", "value": "help return the HPA axis"}, {"measurement": "abstinence from opioids following treatment", "setting": "[6]", "value": 100, "unit": "%"}, {"measurement": "severe withdrawal symptoms including psychosis or extreme anxiety", "setting": "[7]", "value": "prevent these symptoms"}, {"measurement": "percentage abstinent to alcohol following treatment", "setting": "[8]; 53.1% before", "value": 77.1, "unit": "%"}, {"measurement": "percent of patients drinking daily following treatment", "setting": "[8]; flumazenil infusions or implants, 14.5% before", "value": 5.5, "unit": "%"}, {"measurement": "craving for and use of nicotine", "setting": "[9]", "value": "reduced craving and use"}, {"measurement": "levels of relaxation following treatment", "setting": "[10]; twenty one patients", "value": "statically significant increase"}, {"measurement": "states of calmness, tenseness, relaxation, contentedness, worry and upset", "setting": "[10]; twenty one patients after treatment", "value": "improved"}, {"measurement": "usual expected blood flumazenil level", "setting": "[11]; 80 microgram per hour infusions", "value": "1 to 1.5", "unit": "ng"}, {"measurement": "usual expected blood flumazenil level", "setting": "[11]; 160 microgram an hour infusions", "value": "2-3 ng per ml"}, {"measurement": "concentration at 8 weeks", "setting": "[11]; human, blood, subcutaneous, migraine patient, end of week 8 on the first implant", "value": 0.5, "unit": "ng/mL"}, {"measurement": "blood levels of flumazenil", "setting": "[11]; migraine patient, during the time of the second implant", "value": "1.2 ng/mL and 1.3 ng/mL"}, {"measurement": "blood flumazenil level", "setting": "[11]; migraine patient, in the week before the implant was inserted", "value": 0.5, "unit": "ng/mL"}, {"measurement": "blocking of positive modulation of the GABAA receptor with benzodiazepines", "setting": "[12]; flumazenil at 40-160 μg/hour", "value": "not significantly blocked"}, {"measurement": "time to cease benzodiazepine use after commencement of the infusion", "setting": "[12]; subcutaneous infusion 40 to 160 μg per hour", "value": "within a few days to a week"}, {"measurement": "craving for benzodiazepines", "setting": "[12]; subcutaneous infusion 40 to 160 μg per hour, 16 mg per 30 ml, pH 4±1", "value": "decrease in their craving for benzodiazepines"}]}]}
